This is an account of results in patent US20230339896A1, “HPK1 INHIBITORS AND USES THEREOF” (QILU REGOR THERAPEUTICS INC., priority 2020, published 2023).

Like-named read-outs stand apart in the source and are kept apart here.

This experiment deals with HPK1 (Homo sapiens (Human), UniProt Q92918). The experiment in a line: HPK1 biochemical assay (ADP-GLO Kinase Assay). From the text: This example used the ADP-GLO™ Kinase Assay to measure the effect of potential HPK1 inhibitor compounds on HPK1 kinase activity.
The ADP-GLO™ Kinase Assay (Promega Corp., Madison, WI) measures ADP formed from a kinase reaction. According to the manufacture, the ADP formed in a kinase assay is first converted into ATP, which is then used to generate light in a luciferase reaction. The luminescence generated correlates with kinase activity. An exemplary experimental setting is described below, though minor adjustments can be made in individual assays.
Serial 3-fold dilution of compoounds from 10 µM (top concentration) to 0.508 nM (lowest concentration). Positive control is 10 µM Reference + enzyme + substrate. Negative control is 1% DMSO + enzyme + substrate.
40 mM Tris pH7.5; 20 mM MgC12, 0.1 mg/ml BSA, 50 µM DTT Buffer stock
• 1) The compounds were diluted to 1 mM, by mixing 10 µL of 10 mM respective compound stocks with 90 µL of DMSO. • 2) The compounds were then diluted 3-fold for 10 doses (5 µL to 10 µL dilution) by BRAVO. The top compound conc. was 1 mM (100×), DMSO Conc. was 100%. • 3) Transfer 100 nL of each diluted compound sample to 384-well plate (Corning-4512) by ECHO. • 4) Centrifuge the plate at 1,500 rpm for 1 minute.
20 µM ATP, 0.2 µg/µL MBP in Kinase Buffer (final concentration: 10 µM ATP, 0.1 µg/µL MBP)
• 5. Preparation of 2× HPK1 working solution with assay buffer. HPK1 final concentration was 0.6 ng/µL. […] Add 5 µL/well of 2× HPK1 working solution, Centrifuge at 1,500 rpm for 1 minute. • 7. Add 5 µL/well of 2× ATP-Substrate, Centrifuge at 1,500 rpm for 1 minute. • 8. Incubate at 25° C. for 1 hour (or 6 hours for compounds with high potency). • 9. Add 5 µL/well ADP-GLO™ Reagent to stop the kinase reaction and deplete the unconsumed ATP. Centrifuge at 1,500 rpm for 1 minute. Incubate at 25° C. for 40 min. • 10. Add 10 µL of Kinase Detection Reagent to convert ADP to ATP. Centrifuge at 1,500 rpm for 1 minute. Incubate at 25° C. for 40 min. • 11. Record luminescence signal on an Envision plate reader (384-CTG).
The percent (%) inhibition at each concentration of compound is calculated based on and relative to the signal in the High and Low control wells contained within each assay plate. […] The concentrations and % inhibition values for tested compounds were plotted and the concentration of compound required for 50% inhibition (IC50) was determined with a Three-parameter logistic dose response equation. The endpoint value (IC50) for the reference peptide/compound was evaluated in each experiment as a quality control measure. If the endpoint value was within 3-fold of the expected value, then the experiment was deemed acceptable.
(ADP-Glo turns the ADP formed in a reaction into a luminescent signal.)

The mark [1] stands for this setting: ADP-GLO, 10 µM ATP, MBP substrate, read-out: HPK1 IC50.
Setting [2] is: Table 12-1, read-out: HPK1 inhibition activities.

Sequence of HPK1 (Q92918 whole entry): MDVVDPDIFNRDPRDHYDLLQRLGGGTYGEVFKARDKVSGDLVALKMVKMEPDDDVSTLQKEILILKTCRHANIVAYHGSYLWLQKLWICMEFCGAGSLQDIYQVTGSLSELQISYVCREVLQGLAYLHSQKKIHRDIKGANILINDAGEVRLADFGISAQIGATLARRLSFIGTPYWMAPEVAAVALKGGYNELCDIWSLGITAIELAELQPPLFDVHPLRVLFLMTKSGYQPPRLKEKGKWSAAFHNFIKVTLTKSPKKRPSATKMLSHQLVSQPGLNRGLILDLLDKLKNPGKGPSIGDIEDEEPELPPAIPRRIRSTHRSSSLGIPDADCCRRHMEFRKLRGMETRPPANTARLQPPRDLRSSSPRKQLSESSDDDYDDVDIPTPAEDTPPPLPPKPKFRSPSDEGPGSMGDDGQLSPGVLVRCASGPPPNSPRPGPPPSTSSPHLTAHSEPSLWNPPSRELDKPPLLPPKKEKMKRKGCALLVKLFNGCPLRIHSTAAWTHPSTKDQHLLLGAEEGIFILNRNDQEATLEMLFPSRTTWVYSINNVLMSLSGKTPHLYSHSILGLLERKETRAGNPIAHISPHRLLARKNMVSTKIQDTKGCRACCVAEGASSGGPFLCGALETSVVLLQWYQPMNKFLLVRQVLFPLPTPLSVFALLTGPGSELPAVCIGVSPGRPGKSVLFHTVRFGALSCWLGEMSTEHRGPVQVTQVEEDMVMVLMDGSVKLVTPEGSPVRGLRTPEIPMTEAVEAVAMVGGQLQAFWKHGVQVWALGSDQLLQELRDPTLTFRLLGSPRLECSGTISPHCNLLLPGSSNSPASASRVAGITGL

Turning to `CN1CCc2cc(F)c(Nc3ncc(Cl)c(N4C[C@](C)(CC(=O)O)c5ccccc54)n3)cc2C1` (single isomer, unassigned) [Example 5, (R)-2-[1-[5-chloro-2-[(6-fluoro-2-methyl-3,4-dihydro-1H-isoquinolin-7-yl)amino]pyrimidin-4-yl]-3-methyl-indolin-3-yl]acetic acid or (S)-2-[1-[5-chloro-2-[(6-fluoro-2-methyl-3,4-dihydro-1H-isoquinolin-7-yl)amino]pyrimidin-4-yl]-3-methyl-indolin-3-yl]acetic acid], the IC50 was 0.2 nM under setting [1] and less than 1 nM under setting [2].
For `COc1cc2c(cc1Nc1ncc(Cl)c(N3CC(C(=O)O)c4ccccc43)n1)CN(C)CC2` (centres unmarked) [Compound 7, reference compound], the IC50 under setting [1] turned out to be 1 nM.
On the same count and under the same terms, as for `COc1cc2c(cc1Nc1ncc(Cl)c(N3CC(C)(CC(=O)O)c4ccc(F)cc43)n1)CN(C)CC2` (centres unmarked) [Compound 10, reference compound], the figure is 0.5 nM.
With `COc1cc2c(cc1Nc1ncc(Cl)c(N3CC(C)(CC(=O)O)c4ccccc43)n1)CN(C)CC2` (centres unmarked) [Example 1, 2-(1-(5-chloro-2-((6-methoxy-2-methyl-1,2,3,4-tetrahydroisoquinolin-7-yl)amino)pyrimidin-4-yl)-3-methylindolin-3-yl)acetic acid], the IC50 was 0.5 nM under setting [1] and less than 1 nM under setting [2].
The matching figures for `CN1CCc2cc(F)c(Nc3ncc(Cl)c(N4CC(C)(CC(=O)O)c5ccccc54)n3)cc2C1` (centres unmarked) [Example 4, 2-(1-(5-chloro-2-((6-fluoro-2-methyl-1,2,3,4-tetrahydroisoquinolin-7-yl)amino)pyrimidin-4-yl)-3-methylindolin-3-yl)acetic acid]: 0.7 nM and less than 1 nM.
The matching figures for `COc1cc2c(cc1Nc1ncc(Cl)c(N3CC(C)(CC(=O)O)c4ccccc43)n1)CN(C)CC2` (single isomer, unassigned) [Example 2, (R)-2-(1-(5-chloro-2-((6-methoxy-2-methyl-1,2,3,4-tetrahydroisoquinolin-7-yl)amino)pyrimidin-4-yl)-3-methylindolin-3-yl)acetic acid or (S)-2-(1-(5-chloro-2-((6-methoxy-2-methyl-1,2,3,4-tetrahydroisoquinolin-7-yl)amino)pyrimidin-4-yl)-3-methylindolin-3-yl)acetic acid]: 0.2 nM and less than 1 nM.
On to `COc1cc2c(cc1Nc1ncc(Cl)c(N3CC(CC(=O)O)c4ccccc43)n1)CN(C)CC2` (centres unmarked) [Compound 8, reference compound], for which the IC50 under setting [1] is 1.5 nM.
